Activity calls are given as the source filed them. How the calls were made is not given here. Some results are limits rather than exact numbers.

From PubChem BioAssay AID1033 (Sanford-Burnham Center for Chemical Genomics, 2008) come the findings set out here.

Sequence of Chaperone protein DnaK (Escherichia coli (strain K12)) (P0A6Y8 whole entry, looked up): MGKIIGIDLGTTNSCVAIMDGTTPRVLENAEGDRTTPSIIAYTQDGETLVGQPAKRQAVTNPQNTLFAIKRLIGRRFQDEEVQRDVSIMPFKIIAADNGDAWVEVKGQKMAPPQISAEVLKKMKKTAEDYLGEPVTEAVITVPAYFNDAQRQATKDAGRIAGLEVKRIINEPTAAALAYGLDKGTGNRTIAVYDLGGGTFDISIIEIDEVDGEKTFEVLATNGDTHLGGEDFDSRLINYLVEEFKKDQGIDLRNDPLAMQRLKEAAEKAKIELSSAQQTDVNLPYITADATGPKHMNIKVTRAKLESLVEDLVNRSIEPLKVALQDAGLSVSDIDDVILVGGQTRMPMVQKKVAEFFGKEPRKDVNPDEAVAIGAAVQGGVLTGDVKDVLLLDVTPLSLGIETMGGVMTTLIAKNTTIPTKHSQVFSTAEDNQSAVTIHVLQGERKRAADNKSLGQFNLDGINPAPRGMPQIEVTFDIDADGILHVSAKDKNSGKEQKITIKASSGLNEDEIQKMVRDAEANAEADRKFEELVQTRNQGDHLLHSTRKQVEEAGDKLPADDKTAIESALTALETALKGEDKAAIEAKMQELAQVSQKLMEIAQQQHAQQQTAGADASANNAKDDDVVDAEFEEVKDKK

The assay addresses Chaperone protein DnaK (Escherichia coli (strain K12)) (UniProt P0A6Y8). The experiment in a line: E. coli DnaK SBD ligand binding – biophysical, NMR, chaperone (AID 1033). The note with it: Purified DnaK SBD.
The term Kd denotes the constant that tells how readily two partners part at equilibrium. For `N#Cc1cccc(Cn2nnc(-c3ccccc3)n2)c1`, the Kd is > 4 mM (inactive). For `COc1cc(N)ncn1` the value was > 4 mM (inactive); for `CC1CN(C(=O)c2ccncc2)CC(C)O1` (centres undefined), > 4 mM (inactive). For `Cc1csc2nc(N)nn12` the value was > 4 mM (inactive); for `CN(C)N1C(=O)C2C3C=CC(O3)C2C1=O` (centres undefined), > 4 mM (inactive).

Regarding `Cc1sc2nc(SCC(=O)N(C)C)[nH]c(=O)c2c1C`, the Kd was > 4 mM (inactive). Regarding `C[C@@H]1CC[C@@]2(OC1)O[C@H]1CC3C4CC[C@H]5C[C@@H](O)CC[C@]5(C)C4CC[C@]3(C)[C@H]1[C@@H]2C` (some centres undefined), the Kd was > 4 mM (inactive). For `COc1ccc([C@@H]2CC(=O)c3c(O)cc(O)cc3O2)cc1O`, the Kd is > 4 mM (inactive). On to `c1ccc(SCc2nc(-c3ccncc3)no2)cc1`, for which the Kd was > 4 mM (inactive). For `CC1CCC2(OC1)OC1CC3C4CCC5C[C@@H](O)CCC5(C)C4=CCC3(C)C1[C@@H]2C` (some centres undefined) the value was > 4 mM (inactive). On to `Cc1ccc(C)n1NC(=O)c1cccs1`, for which the Kd was > 4 mM (inactive). For `COc1ccc(-c2cc(=O)c3c(O)c(OC)c(O[C@H]4O[C@H](CO[C@@H]5O[C@@H](C)[C@H](O)[C@@H](O)[C@H]5O)[C@@H](O)[C@H](O)[C@H]4O)cc3o2)cc1`, the Kd is > 4 mM (inactive).

With `Cc1occc1C(=O)Nc1ccc2c(c1)CCC2`, the Kd is > 4 mM (inactive). `O=C(Nc1cnccn1)c1cccnc1`: the Kd is > 4 mM (inactive). Turning to `N#CCCn1c(=O)oc2ccccc21`, the Kd is > 4 mM (inactive).

For the molecule `Cc1ccc2cc(N)ccc2n1`, the Kd is > 4 mM (inactive). As for `Nc1nc(-c2ccc(O)cc2)cs1`, the Kd is > 4 mM (inactive). As to `CCC(=O)Nc1cc(C(C)C)c(O)cc1C`, the Kd is > 4 mM (inactive). For `N=Nc1c(O)[nH]c2ccccc12` the value was > 4 mM (inactive); for `O=C(O)c1ccc2nccnc2c1`, > 4 mM (inactive). For `CC(=O)O[C@H]1CCC2(C)C3=C(CCC2C1(C)C)[C@]1(C)CCC(C(C)CCC=C(C)C)[C@@]1(C)CC3` (some centres undefined), the Kd is > 4 mM (inactive).

For the molecule `COC(=O)CSc1nnc(-c2ccc(C(=O)O)cc2)o1`, the Kd was > 4 mM (inactive).

Take `CSc1nc(-c2ccco2)nn1S(C)(=O)=O`: the Kd is > 4 mM (inactive). For `Nc1[nH]c(=S)[nH]c(=O)c1-c1ccccc1` the value was > 4 mM (inactive); for `O=C(CSc1nc2ccccc2[nH]1)N1CCCCC1`, > 4 mM (inactive). Regarding `COc1ccc2c(c1)c1n[nH]c(=S)nc1n2C`, the Kd was > 4 mM (inactive).

Take `NC(=O)C1CCCN1S(=O)(=O)c1ccc(F)cc1` (centres undefined): the Kd is > 4 mM (inactive). For the molecule `CN(C)c1ccc2c(=O)[nH][nH]c(=O)c2c1`, the Kd was > 4 mM (inactive). Turning to `COc1ccc2[nH]c(O)c(NC(C)=O)c2c1`, the Kd was > 4 mM (inactive).

Consider `O=C(NCc1ccccn1)c1ccccc1Cl`, for which the Kd is > 4 mM (inactive). For `Cc1ccnc(NS(=O)(=O)c2cccs2)c1` the value was > 4 mM (inactive); for `CC1=NCCc2c1[nH]c1cc(O)ccc21`, > 4 mM (inactive).

With `COc1ccc(Cc2nccc3cc(OC)c(OC)cc23)cc1OC`, the Kd is > 4 mM (inactive).

On to `COc1c(OC)c2occc2c2oc(=O)ccc12`, for which the Kd was > 4 mM (inactive). Regarding `COc1ccc(-c2coc3c(OC)c(OC)cc(O)c3c2=O)cc1`, the Kd was > 4 mM (inactive).

With `Cc1cc(C(=O)Nc2sc(C)c(C)c2C#N)c(C)o1`, the Kd was > 4 mM (inactive). For `CS(=O)(=O)N1CCN(c2ncccn2)CC1` the value was > 4 mM (inactive); for `NC1=NC(=O)/C(=C\c2cccnc2)S1`, > 4 mM (inactive). As for `Nc1cccc(S(=O)(=O)N2CCCCC2)c1`, the Kd was > 4 mM (inactive).

On to `O=C1CSC(c2ccc3c(c2)OCO3)N1` (centres undefined), for which the Kd is > 4 mM (inactive). With `CSc1nnc2c(n1)OC(C)=Nc1ccccc1-2`, the Kd was > 4 mM (inactive).

`O=C1CCNc2ccccc2N1`: the Kd was > 4 mM (inactive).

In the case of `COc1ccc(N2C(=N)C(C)(C)NC2=O)cc1`, the Kd is > 4 mM (inactive). Take `CCNC(CC(=O)Nc1ccc(O)cc1)C(=O)O` (centres undefined): the Kd is > 4 mM (inactive). On to `Nc1ccc2c(c1)S(=O)(=O)C=C2`, for which the Kd is > 4 mM (inactive). In the case of `Cc1ccc(-c2nc(-c3cccnc3)no2)cc1`, the Kd was > 4 mM (inactive). For the molecule `CCCCCCCCCCCCCCCCCCOCC(O)CO` (centres undefined), the Kd is > 4 mM (inactive). Take `O=C(OCc1c(F)cccc1Cl)c1cnccn1`: the Kd is > 4 mM (inactive). With `COc1cc2c(c(OC)c1OC)-c1ccc(O)c(=O)cc1[C@@H](NC(C)=O)CC2`, the Kd is > 4 mM (inactive). On to `O=C(O)c1cccc(CSc2ncccn2)c1`, for which the Kd was > 4 mM (inactive). `CCOC(=O)c1c(C)cc(OC)cc1O`: the Kd is > 4 mM (inactive). For `CSc1ccccc1NC(=O)c1ccncc1` the value was > 4 mM (inactive); for `NC(=O)COc1cccc2cccnc12`, > 4 mM (inactive). Take `Nc1cccnc1N1CCOCC1`: the Kd was > 4 mM (inactive). In the case of `NC(=O)CN1CCCCCC1=O`, the Kd is > 4 mM (inactive).

For `Cc1cccc(NC(=O)CN2C(=O)CNC2=O)c1`, the Kd was > 4 mM (inactive).

`Cc1nn(C)c(Cl)c1C(O)c1c(C)nn(C)c1Cl`: the Kd was > 4 mM (inactive). `O=C(c1cccnc1Cl)N1CCOCC1`: the Kd was > 4 mM (inactive). In the case of `NS(=O)(=O)c1ccc(NC(=S)NC2CC2)cc1`, the Kd is > 4 mM (inactive).

`O=C(O)Cc1noc2ccccc12`: the Kd is > 4 mM (inactive). As to `Cc1occc1C(=O)N1CCN(S(C)(=O)=O)CC1`, the Kd is > 4 mM (inactive).

On to `COc1ccc(C)cc1S(=O)(=O)NC1CCCC1`, for which the Kd is > 4 mM (inactive). Turning to `CC(C)=CCCC1(C)C=Cc2c(O)c3c(c(CC=C(C)C)c2O1)OC12C(=CC4CC1C(C)(C)OC2(C/C=C(/C)C(=O)O)C4O)C3=O` (centres undefined), the Kd was > 4 mM (inactive). With `CS(=O)(=O)N1CCN(c2ccccc2F)CC1`, the Kd is > 4 mM (inactive). For `COc1cccc(/C=C2/SC(N)=NC2=O)c1` the value was > 4 mM (inactive). `O=C(Nn1cnnc1)c1cccc(C(F)(F)F)c1`: the Kd was > 4 mM (inactive). `c1csc(-c2nnc3ccccn23)c1`: the Kd is > 4 mM (inactive). Take `COC(=O)c1cc2ccccc2cn1`: the Kd was > 4 mM (inactive). Consider `CN(C)C(=O)CSc1cccc2cccnc12`, for which the Kd is > 4 mM (inactive). For the molecule `O=C(O)C1Cc2ccccc2N1` (centres undefined), the Kd was > 4 mM (inactive). For `O=C(O)CC1Sc2ccccc2NC1=O` (centres undefined) the value was > 4 mM (inactive); for `CC(C)(C)C(=O)N1CCCC1C(=O)O` (centres undefined), > 4 mM (inactive). In the case of `O=C1CSC(=Nc2ccc(O)cc2)N1`, the Kd is > 4 mM (inactive). For `O=C(CSc1ncn[nH]1)c1ccc2c(c1)OCCO2` the value was > 4 mM (inactive); for `COc1cc(O)c2c(=O)c(O)c(-c3ccc(O)c(O)c3)oc2c1`, > 4 mM (inactive). Take `Cn1nc(C(=O)NC2CCCCC2)c2ccccc2c1=O`: the Kd is > 4 mM (inactive). For the molecule `c1ccc(CCc2nc(-c3cccnc3)no2)cc1`, the Kd is > 4 mM (inactive). For `CN1C(=O)/C(=C/c2ccc(O)cc2O)SC1=S` the value was > 4 mM (inactive); for `O=C(Nc1ccncc1)Nc1ccc(F)cc1F`, > 4 mM (inactive). For `O=C(O)/C=C/c1ccc(O)c(O)c1`, the Kd was > 4 mM (inactive). Take `COc1ccc2cc1Oc1ccc(cc1)C[C@H]1c3c(cc4c(c3Oc3cc5c(cc3OC)CCN(C)[C@@H]5C2)OCO4)CCN1C`: the Kd is > 4 mM (inactive). `CC1Cc2nc(SCC(N)=O)n(C)c(=O)c2S1` (centres undefined): the Kd is > 4 mM (inactive). Take `CN1C2CC3C[C@H]1C(O3)C2O` (some centres undefined): the Kd is > 4 mM (inactive). `Cc1cc(C)n(-c2ccc(N)cc2)n1`: the Kd is > 4 mM (inactive). With `COCCOc1nc2ccccc2nc1C`, the Kd was > 4 mM (inactive).

In the case of `O=C(O)CCC(=O)c1cccc2ccccc12`, the Kd was > 4 mM (inactive). In the case of `c1ccc(-c2nnc3sc(-c4ccncc4)nn23)cc1`, the Kd was > 4 mM (inactive). Regarding `COc1c(O)cc2c(c1O)[C@H]1O[C@H](CO)[C@@H](O)[C@H](O)[C@@H]1OC2=O`, the Kd is > 4 mM (inactive). In the case of `Cc1c(C(=O)Nc2ccccn2)oc2ccccc12`, the Kd was > 4 mM (inactive). Take `OCc1ccc(-n2cccn2)cc1`: the Kd was > 4 mM (inactive).

`NC(=O)Cc1nc(-c2ccc(F)cc2)cs1`: the Kd is > 4 mM (inactive). For the molecule `O=C(Cc1c(F)cccc1Cl)Nc1ccncc1`, the Kd was > 4 mM (inactive).

For `O=C(c1ccc(N2CCNCC2)cc1)c1cccnc1`, the Kd was > 4 mM (inactive). Take `Cc1csc(SCC(=O)N2CCCC2)n1`: the Kd is > 4 mM (inactive).

As to `CN(C)c1ccc(N2C(=O)CCC2=O)cc1`, the Kd is > 4 mM (inactive). Consider `O=C(c1ccccc1)N1CCOCC1`, for which the Kd was > 4 mM (inactive). For `O=C(c1nc2ccccc2s1)N1CCSCC1`, the Kd is > 4 mM (inactive). For the molecule `NC(=S)N1CCC(c2ccccc2)=N1`, the Kd is > 4 mM (inactive). `NCc1ccc(S(=O)(=O)O)cc1`: the Kd is > 4 mM (inactive). As to `O=C(O)c1cc2ccccc2s1`, the Kd is > 4 mM (inactive).

Consider `O=C(NCc1cccc2ccccc12)c1cccs1`, for which the Kd is < 0.2 mM. Take `COC(=O)C[C@H]1C(C)(C)C(=O)[C@@H]2CC3C4=CC(=O)O[C@@H](c5ccoc5)[C@]4(C)CCC3C1(C)C2=O` (some centres undefined): the Kd is > 4 mM (inactive). Consider `O=C(c1cnsn1)N1CCN(c2ccccc2)CC1`, for which the Kd was > 4 mM (inactive).

For `Cc1occc(=O)c1O`, the Kd was > 4 mM (inactive).
